According to patent US9439839B2, “Cosmetic solution, method for producing cosmetic solution, and cosmetic method” (priority 2011, dated 2016):

Assay: evaluation of moisturizing power with oil water content measuring apparatus
Format: in vivo
Conditions: cosmetic solution diluted twice by water, applied to forearm flexor side; compared with propylene glycol and 1,3-butylene glycol
Source text: For the evaluation of moisturizing power, an oil water content measuring apparatus (WSK-P500U manufactured by Wave Cyber) was used. This measuring apparatus indicates the water content of the part of the skin to be measured by a relative value of 0 to 99. The part to be measured was the forearm flexor side.

For `OCC(O)CO` [glycerin], which moisturizing power is on record?
The moisturizing power was “highest moisturizing power”.
